Experimental data as given in patent publication US8426437B2, “Pyrroloquinoline derivatives and their use as protein kinases inhibitors” (Pierre Fabre Medicament, priority 2005, dated 2013).

Assays:
SW756 = assay: WST test, inhibition of proliferation of SW756; type: cell-based; conditions: Homo sapiens, 96 h; line SW756, tissue of origin Cervix; four days of incubation, WST-1
Procedure: (§1) The inhibition of the proliferation of cell lines by certain compounds of the invention was tested. […] In the example, the lines used were derived from cancers of the uterus, central nervous system, colon, stomach, head and neck, lung, breast, pancreas, and kidney, as well as from lymphoma, myeloma, pleura, or from melanoma.
(§2) The WST test for measuring cell proliferation and viability (Roche Applied Science) is based on cleavage of a tetrazolium salt by the mitochondrial dehydrogenases in viable cells.
(§3) After four days of incubation of the compounds with the cell line, 14 μl of WST-1 reagent is added to each well and the plates are incubated for four hours at 37° in humid atmosphere at 5% CO2. The level of formazan formed is then determined by spectrophotometry at 450 nm whereas a reference is measured at 650 nm. A control with untreated cells is represented by six wells per plate and the group of treated cells is produced in triplicate for each of the concentrations measured.
(§4) The compounds are tested at five concentrations between 10 nM and 100 μM and two cytotoxic agents are used as controls: adriamycin and 5-fluorouracil.

SKNAS = assay: WST test, inhibition of proliferation of SKNAS; type: cell-based; conditions: Homo sapiens, SK-N-AS, 96 h; line SKNAS, tissue of origin CMS; four days of incubation, WST-1
Procedure: as §1, §2, §3, §4

HT144 = assay: WST test, inhibition of proliferation of HT144; type: cell-based; conditions: Homo sapiens, HT-144, 96 h; line HT144, tissue of origin Melanoma; four days of incubation, WST-1
Procedure: as §1, §2, §3, §4

MDA-453 = assay: WST test, inhibition of proliferation of MDA-453; type: cell-based; conditions: 96 h; line MDA-453, tissue of origin Breast; four days of incubation, WST-1
Procedure: as §1, §2, §3, §4

H69 = assay: WST test, inhibition of proliferation of H69; type: cell-based; conditions: Homo sapiens, NCI-H69, 96 h; line H69, tissue of origin Lung (SCLC); four days of incubation, WST-1
Procedure: as §1, §2, §3, §4

Met (h) = target: T1, Met (h) (Homo sapiens, UniProt P08581); assay: Upstate kinase panel: Met; type: biochemical; conditions: compound 20 μM, 10 μM ATP, read-out: % inhibition at 20 μMol
T1 construct: purchased Upstate
Procedure: (§5) These kinases are produced by Upstate and screened according to the respective protocols indicated by the supplier (http://www.upstate.com/features/kp_protocols.asp). Examples 1, 12, 166 and 238 were tested at a concentration of 20 μM, 10 μM, 1 μM and 1 μM respectively in the presence of 10 μM of ATP for examples 1 and 12 and at the concentrations of ATP shown in parentheses for examples 166 and 238. The results shown in Table VII correspond to percentage inhibition of the kinase tested in the presence of the compound, relative to a control effected without the compound.

PIM-1 = target: T2, PIM-1 (Homo sapiens, UniProt P11309); assay: Inhibition of kinase PIM-1 (Kinase-Glo); type: biochemical; conditions: PIM-1 0.625 μg/ml, 10 μM ATP, forty minutes at 30° C.
T2 construct: purchased Upstate 14-573
Outline: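 PIM-1 (0.625 μg/ml) in MOPS/NaOH pH 7 with Mg acetate was run with 70 μM S6 kinase/Rsk2 peptide and 10 μM ATP, with compound at 10 nM–30 μM final.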

PIM-1 (h) = target: T3, PIM-1 (h) (Homo sapiens, UniProt P11309); assay: Upstate kinase panel: PIM-1; type: biochemical; conditions: compound 20 μM, 10 μM ATP, read-out: % inhibition at 20 μMol
T3 construct: purchased Upstate
Procedure: as §5

TrkA (h) = target: T4, TrkA (h) (Homo sapiens, UniProt P04629); assay: Upstate kinase panel: TrkA; type: biochemical; conditions: compound 20 μM, 10 μM ATP, read-out: % inhibition at 20 μMol
T4 construct: purchased Upstate
Procedure: as §5

TrkA = target: T5, TrkA (Homo sapiens, UniProt P04629); assay: Inhibition of kinase TrkA (Kinase-Glo); type: biochemical; conditions: TrkA 4 μg/ml, 30 μM ATP, two hours at 30° C.
T5 construct: purchased Upstate 14-571
Outline: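 TrkA (4 μg/ml) was incubated with 1 mg/ml poly-EY and 30 μM ATP in MOPS pH 7 buffer with Mg acetate, DTT and vanadate, compounds at 10 nM–30 μM final, for 2 h at 30 °C. Remaining ATP was quantified by Kinase-Glo luminescence.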

TrkB = target: T6, TrkB (Homo sapiens, UniProt Q16620); assay: Inhibition of kinase TrkB (Kinase-Glo); type: biochemical; conditions: TrkB 4 μg/ml, 40 μM ATP, two hours at 30° C.
T6 construct: purchased Upstate 14-507
Outline: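 TrkB at 4 μg/ml with 2.5 mg/ml poly-EY and 40 μM ATP in MOPS/NaOH pH 7 buffer with MgAc, EDTA, DTT, vanadate and glycerophosphate; compounds at final 10 nM–30 μM. After 2 h at 30°C, remaining ATP measured by Kinase-Glo luminescence.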

TrkB (h) = target: T7, TrkB (h) (Homo sapiens, UniProt Q16620); assay: Upstate kinase panel: TrkB; type: biochemical; conditions: compound 10 μM, 10 μM ATP, read-out: % inhibition at 10 μMol
T7 construct: purchased Upstate
Procedure: as §5

T5 sequence (P04629 33-796): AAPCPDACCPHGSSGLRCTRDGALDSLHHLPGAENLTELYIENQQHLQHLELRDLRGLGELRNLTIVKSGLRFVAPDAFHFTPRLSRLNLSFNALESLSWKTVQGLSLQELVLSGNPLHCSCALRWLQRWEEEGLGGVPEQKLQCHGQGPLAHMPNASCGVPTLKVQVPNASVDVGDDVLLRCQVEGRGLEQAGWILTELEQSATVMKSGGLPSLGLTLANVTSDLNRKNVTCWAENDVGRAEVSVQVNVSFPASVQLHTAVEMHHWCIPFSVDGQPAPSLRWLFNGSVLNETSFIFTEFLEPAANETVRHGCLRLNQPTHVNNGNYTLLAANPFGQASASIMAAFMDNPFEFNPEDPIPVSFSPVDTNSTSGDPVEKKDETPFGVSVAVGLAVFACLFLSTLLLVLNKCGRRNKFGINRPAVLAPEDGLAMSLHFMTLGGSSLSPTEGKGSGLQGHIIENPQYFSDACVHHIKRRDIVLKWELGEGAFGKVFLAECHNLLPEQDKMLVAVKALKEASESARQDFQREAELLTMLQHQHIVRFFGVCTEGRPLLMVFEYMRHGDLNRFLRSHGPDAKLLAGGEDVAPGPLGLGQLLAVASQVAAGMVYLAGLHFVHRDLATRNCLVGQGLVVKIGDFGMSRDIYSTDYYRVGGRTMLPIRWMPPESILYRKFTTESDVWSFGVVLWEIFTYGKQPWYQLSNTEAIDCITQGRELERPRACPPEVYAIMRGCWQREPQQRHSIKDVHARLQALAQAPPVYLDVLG
T4 sequence (P04629 33-796): as above
T7 sequence (Q16620 32-822): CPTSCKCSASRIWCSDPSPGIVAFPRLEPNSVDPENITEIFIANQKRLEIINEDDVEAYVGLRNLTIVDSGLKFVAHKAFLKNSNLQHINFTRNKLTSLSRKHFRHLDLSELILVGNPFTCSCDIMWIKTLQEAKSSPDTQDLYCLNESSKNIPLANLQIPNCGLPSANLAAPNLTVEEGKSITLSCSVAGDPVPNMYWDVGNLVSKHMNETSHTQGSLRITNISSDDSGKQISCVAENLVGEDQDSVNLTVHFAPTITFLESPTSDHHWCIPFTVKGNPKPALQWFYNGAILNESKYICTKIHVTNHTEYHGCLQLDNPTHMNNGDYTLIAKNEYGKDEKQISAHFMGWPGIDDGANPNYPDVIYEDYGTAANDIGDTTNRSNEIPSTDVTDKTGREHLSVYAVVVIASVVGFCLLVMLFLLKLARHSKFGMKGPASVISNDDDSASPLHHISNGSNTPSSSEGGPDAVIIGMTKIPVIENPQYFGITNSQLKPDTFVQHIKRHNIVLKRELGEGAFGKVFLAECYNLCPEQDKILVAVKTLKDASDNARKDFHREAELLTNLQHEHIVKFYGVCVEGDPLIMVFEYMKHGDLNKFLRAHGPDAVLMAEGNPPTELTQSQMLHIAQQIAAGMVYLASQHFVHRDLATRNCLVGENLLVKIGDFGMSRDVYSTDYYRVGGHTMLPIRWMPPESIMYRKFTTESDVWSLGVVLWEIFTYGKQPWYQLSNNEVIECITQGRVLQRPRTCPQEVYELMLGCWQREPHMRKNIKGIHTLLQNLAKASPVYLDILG
T6 sequence (Q16620 32-822): as above
T1 sequence (P08581 25-1390): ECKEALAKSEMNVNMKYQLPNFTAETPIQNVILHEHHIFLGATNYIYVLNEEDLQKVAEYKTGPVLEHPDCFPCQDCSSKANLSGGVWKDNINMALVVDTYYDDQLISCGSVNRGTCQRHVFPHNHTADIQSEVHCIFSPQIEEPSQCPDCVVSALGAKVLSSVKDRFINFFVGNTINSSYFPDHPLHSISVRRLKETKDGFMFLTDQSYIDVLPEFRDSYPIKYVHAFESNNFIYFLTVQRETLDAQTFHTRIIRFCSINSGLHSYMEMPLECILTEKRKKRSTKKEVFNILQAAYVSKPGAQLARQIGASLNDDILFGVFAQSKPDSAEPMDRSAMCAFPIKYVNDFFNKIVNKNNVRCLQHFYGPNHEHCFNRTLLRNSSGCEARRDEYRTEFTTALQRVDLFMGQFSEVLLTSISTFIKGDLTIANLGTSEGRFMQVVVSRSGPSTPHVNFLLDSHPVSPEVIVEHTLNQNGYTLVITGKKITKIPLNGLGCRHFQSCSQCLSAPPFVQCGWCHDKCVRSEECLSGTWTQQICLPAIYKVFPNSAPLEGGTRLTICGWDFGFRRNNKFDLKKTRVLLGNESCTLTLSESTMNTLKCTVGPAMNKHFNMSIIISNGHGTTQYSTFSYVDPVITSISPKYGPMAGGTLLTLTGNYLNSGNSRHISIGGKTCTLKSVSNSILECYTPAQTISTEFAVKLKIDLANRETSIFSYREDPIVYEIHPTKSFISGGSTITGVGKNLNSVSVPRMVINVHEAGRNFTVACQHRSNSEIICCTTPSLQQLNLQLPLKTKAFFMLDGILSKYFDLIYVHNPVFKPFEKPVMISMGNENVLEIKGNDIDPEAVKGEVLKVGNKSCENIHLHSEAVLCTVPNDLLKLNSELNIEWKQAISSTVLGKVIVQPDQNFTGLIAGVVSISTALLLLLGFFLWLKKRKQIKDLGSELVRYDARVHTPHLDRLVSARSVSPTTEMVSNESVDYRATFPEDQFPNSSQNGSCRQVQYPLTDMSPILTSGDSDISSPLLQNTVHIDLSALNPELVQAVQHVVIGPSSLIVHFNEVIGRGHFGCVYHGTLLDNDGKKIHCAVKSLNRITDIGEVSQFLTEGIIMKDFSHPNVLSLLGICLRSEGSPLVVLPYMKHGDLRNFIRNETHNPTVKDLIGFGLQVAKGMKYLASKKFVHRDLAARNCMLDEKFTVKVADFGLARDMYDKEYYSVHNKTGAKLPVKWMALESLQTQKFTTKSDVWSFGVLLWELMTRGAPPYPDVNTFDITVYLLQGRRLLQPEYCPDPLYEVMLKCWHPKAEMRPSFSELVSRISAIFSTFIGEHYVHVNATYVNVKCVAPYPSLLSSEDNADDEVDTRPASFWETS
T2 sequence (P11309 whole entry): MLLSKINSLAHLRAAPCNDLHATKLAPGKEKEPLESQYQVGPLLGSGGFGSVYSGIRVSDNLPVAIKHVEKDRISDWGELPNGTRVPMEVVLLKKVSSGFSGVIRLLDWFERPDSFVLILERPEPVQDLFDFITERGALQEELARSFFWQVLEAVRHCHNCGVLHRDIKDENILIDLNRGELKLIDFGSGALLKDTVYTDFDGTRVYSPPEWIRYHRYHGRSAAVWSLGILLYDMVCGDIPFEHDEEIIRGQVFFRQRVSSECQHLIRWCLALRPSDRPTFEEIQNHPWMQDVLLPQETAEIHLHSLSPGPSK
T3 sequence (P11309 whole entry): as above

CCOC(=O)c1c[nH]c2c(=O)[nH]c3ccc(-c4cccc(S(C)(=O)=O)c4)cc3c12 [Compound 238, 8-(3-Methanesulfonyl-phenyl)-4-oxo-4,5-dihydro-3H-pyrrolo[2,3-c]quinoline-1-ethyl carboxylate]
IC50 (SW756): 35 µM
IC50 (SKNAS): 12 µM
IC50 (HT144): 31 µM
IC50 (MDA-453): 7 µM
IC50 (H69): 0.5 µM

CCOC(=O)c1c[nH]c2c(=O)[nH]c3ccccc3c12 [Compound 1, 4-Oxo-4,5-dihydro-3H-pyrrolo[2,3-c]quinoline-1-ethyl carboxylate]
inhibition at 20 µM (Met (h)): 52%
IC50 (PIM-1): 10 to 100 µM
inhibition at 20 µM (PIM-1 (h)): 92%
inhibition at 20 µM (TrkA (h)): 97%

CCOC(=O)c1c[nH]c2c(=O)[nH]c3ccc(S(=O)(=O)Nc4ccc(F)cc4)cc3c12 [Compound 12, 8-(4-Fluorophenylsulfamoyl)-4-oxo-4,5-dihydro-3H-pyrrolo[2,3-c]quinoline-1-ethyl carboxylate]
IC50 (TrkA): 1 to 10 µM
IC50 (TrkB): 1 to 10 µM
inhibition at 10 µM (TrkB (h)): 98%
